The target of one data set is human CYP2C9 (Homo sapiens, UniProt P11712). Briefly: biochemical.
Data set [1] has as its target T1, human CYP2C19 (Homo sapiens, UniProt P33261). Briefly: biochemical.
In the next data set the target is CYP3A4 (Homo sapiens, UniProt P08684).
The target of the next data set is human CYP2D6 (Homo sapiens, UniProt P10635). Briefly: biochemical.
For data set [2], the target named is T2, human CYP1A2 (Homo sapiens, UniProt P05177).
T2 sequence (P05177 1-516): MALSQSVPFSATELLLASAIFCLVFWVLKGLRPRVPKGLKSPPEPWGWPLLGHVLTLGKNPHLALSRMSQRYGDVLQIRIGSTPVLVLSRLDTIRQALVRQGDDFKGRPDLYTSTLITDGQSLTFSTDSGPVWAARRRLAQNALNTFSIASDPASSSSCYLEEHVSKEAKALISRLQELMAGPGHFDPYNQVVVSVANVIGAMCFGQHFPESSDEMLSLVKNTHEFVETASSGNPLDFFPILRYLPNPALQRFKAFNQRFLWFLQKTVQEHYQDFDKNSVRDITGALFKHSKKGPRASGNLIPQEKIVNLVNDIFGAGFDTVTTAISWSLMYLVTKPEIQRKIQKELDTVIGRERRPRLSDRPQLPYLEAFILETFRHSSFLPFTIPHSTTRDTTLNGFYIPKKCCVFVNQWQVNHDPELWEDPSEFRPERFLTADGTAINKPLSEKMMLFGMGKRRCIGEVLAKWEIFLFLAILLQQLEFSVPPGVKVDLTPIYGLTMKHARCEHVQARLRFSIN
In words: biochemical.

Data set [3] addresses T1, human CYP2C19.
In data set [4] the target is T2, human CYP1A2.
The target in data set [5] is Photinus pyralis (firefly) luciferase (Photinus pyralis, UniProt P08659). Briefly: biochemical. The class given is biochemical.
Photinus pyralis (firefly) luciferase, sequence (P08659 whole entry): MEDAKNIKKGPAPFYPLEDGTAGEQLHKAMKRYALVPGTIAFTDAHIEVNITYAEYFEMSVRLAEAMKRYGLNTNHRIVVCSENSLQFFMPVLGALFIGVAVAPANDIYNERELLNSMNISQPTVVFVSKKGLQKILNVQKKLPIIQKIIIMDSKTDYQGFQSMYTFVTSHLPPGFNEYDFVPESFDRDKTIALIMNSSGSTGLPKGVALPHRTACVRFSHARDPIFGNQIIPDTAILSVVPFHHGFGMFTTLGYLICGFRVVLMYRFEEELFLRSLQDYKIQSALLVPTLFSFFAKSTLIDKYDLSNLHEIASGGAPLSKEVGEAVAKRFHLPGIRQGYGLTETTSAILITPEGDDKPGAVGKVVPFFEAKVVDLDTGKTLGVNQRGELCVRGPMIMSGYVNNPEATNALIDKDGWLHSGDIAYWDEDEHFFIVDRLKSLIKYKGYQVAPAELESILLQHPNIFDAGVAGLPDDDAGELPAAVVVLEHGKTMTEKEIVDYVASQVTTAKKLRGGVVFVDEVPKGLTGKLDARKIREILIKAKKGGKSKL
[6] abbreviates: CYP2C9 AC50 (half-maximal activity concentration).
Where [7] appears, read: CYP2C19 AC50 (half-maximal activity concentration).
[8] abbreviates: CYP2D6 AC50 (half-maximal activity concentration).
Where [9] appears, read: CYP1A2 AC50 (half-maximal activity concentration).

Where two headings read alike, the source gives them in different places.

T1 sequence (P33261 whole entry): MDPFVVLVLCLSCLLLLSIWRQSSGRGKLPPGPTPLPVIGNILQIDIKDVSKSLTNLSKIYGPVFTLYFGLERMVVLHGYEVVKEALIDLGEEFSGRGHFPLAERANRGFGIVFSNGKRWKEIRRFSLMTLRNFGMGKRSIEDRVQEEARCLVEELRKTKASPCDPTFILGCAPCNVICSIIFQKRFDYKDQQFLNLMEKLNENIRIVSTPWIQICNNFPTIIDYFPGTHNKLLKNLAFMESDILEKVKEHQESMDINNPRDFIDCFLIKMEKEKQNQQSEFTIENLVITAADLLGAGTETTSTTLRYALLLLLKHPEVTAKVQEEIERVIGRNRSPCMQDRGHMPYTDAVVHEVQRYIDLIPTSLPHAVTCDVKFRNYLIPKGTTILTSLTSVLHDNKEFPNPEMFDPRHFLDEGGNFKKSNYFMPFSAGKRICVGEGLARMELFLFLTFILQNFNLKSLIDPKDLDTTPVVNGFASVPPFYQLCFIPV
human CYP2C9, sequence (P11712 whole entry): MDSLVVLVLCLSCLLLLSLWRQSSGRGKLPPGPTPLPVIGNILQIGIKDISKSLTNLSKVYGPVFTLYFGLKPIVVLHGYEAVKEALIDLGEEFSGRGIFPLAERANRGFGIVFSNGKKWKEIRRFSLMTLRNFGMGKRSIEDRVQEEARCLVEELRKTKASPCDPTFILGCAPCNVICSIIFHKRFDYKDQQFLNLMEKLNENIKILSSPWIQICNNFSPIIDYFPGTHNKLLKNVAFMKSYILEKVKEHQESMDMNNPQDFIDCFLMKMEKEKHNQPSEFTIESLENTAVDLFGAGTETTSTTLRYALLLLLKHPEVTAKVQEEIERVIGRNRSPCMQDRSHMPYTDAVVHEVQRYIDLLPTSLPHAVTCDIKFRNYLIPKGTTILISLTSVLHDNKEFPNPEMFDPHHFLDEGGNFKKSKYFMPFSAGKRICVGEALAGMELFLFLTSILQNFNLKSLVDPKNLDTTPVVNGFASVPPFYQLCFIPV
CYP3A4, sequence (P08684 whole entry): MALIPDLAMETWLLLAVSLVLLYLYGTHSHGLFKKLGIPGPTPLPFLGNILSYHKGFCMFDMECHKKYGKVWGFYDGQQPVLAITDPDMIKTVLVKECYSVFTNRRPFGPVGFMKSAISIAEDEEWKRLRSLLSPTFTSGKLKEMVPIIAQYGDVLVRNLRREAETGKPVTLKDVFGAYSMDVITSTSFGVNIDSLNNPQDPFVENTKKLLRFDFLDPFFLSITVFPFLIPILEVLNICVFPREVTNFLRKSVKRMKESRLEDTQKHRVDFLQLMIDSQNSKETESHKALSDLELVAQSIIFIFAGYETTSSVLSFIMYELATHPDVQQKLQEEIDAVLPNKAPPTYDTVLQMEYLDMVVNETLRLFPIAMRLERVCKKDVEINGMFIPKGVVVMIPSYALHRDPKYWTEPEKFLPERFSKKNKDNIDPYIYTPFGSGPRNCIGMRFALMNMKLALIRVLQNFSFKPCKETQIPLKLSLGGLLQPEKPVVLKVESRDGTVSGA
human CYP2D6, sequence (P10635 whole entry): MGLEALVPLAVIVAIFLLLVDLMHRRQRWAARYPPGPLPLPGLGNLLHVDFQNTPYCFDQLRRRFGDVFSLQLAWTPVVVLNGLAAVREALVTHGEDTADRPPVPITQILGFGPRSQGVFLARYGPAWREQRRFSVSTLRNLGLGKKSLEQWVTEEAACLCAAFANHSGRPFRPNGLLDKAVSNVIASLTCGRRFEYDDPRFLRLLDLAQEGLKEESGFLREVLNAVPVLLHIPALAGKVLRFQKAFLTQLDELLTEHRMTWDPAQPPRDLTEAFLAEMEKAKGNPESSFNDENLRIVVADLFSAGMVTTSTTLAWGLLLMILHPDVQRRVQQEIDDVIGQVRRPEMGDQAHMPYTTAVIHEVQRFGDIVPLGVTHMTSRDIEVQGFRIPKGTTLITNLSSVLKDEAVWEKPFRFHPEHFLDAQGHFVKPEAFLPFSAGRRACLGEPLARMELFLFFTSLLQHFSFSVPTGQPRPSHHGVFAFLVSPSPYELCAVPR

With `O=c1[nH]sc2ccccc12` [1,2-Benzisothiazolin-3-one], the half-maximal activity concentration (AC50) worked out at 34.3 µM on human CYP2C9 (setting [6]), 2.38 µM at human CYP2C19 [1] (setting [7]), 11.3 µM on human CYP2D6 (setting [8]) and 31.7 µM on human CYP1A2 [2] (setting [9]). The “CYP3A4 AC50 (half-maximal activity concentration)” value (shortened to “CYP3A4 AC50”) on CYP3A4 is given as “Inconclusive inhibitor”.

With `Oc1cc(Cl)c(Cl)c(Cl)c1` [3,4,5-Trichlorophenol], the AC50 at human CYP2C9 (setting [6]) turned out to be 11.1 µM; at human CYP2C19 [1] (setting [7]), 19.5 µM; on human CYP2D6 (setting [8]), 29 µM; on human CYP1A2 [2] (setting [9]), 26.1 µM. In addition, the “CYP3A4 AC50” value on CYP3A4 is “Inconclusive inhibitor”.

Regarding `Oc1ccc(-c2ccc(O)cc2)cc1` [4,4'-Biphenyldiol], the “CYP2C19 AC50 (half-maximal activity concentration)” value at human CYP2C19 [3] is recorded as “Inconclusive inhibitor”. Besides, the AC50 at human CYP2C9 amounted to 9.08 µM; at human CYP2D6 it was 61.3 µM; at human CYP1A2 [2], 32.1 µM. Further, at CYP3A4, the “CYP3A4 AC50” value is “Inconclusive inhibitor”.

On to `O=C(c1ccc(O)cc1)c1ccc(O)cc1` [4,4'-Dihydoxybenzophenone], for which the AC50 on human CYP2C9 is 0.77 ± 0.4 µM; at human CYP2C19 [1] it was 31.8 ± 10.5 µM; on human CYP2D6, 63.5 ± 20.9 µM; on human CYP1A2 [2] it was 38.5 ± 2.51 µM. The “CYP3A4 AC50” value on CYP3A4 (mean ± standard deviation from three experiments, activity call in words where no AC50) is “Inconclusive inhibitor”.

With `Oc1ccc(Sc2ccc(O)cc2)cc1` [4,4'-Thiodiphenol], the figures for the AC50 at human CYP2C9, at human CYP2C19 [1] and at human CYP2D6 were 3.66 µM, 36 µM and 30.9 µM, respectively. On human CYP1A2 [4], the “CYP1A2 AC50 (half-maximal activity concentration)” value is given as “Inconclusive inhibitor”. For the same compound, at CYP3A4, the “CYP3A4 AC50” value is recorded as “Inconclusive inhibitor”.

With `O=S(=O)(c1ccccc1)c1ccc(Cl)cc1` [4-Chlorophenyl phenyl sulfone], the AC50 at human CYP2C9 was determined as 5.88 µM; on human CYP2C19 [1] it was 4.75 µM; at human CYP2D6 it was 66.7 µM; at human CYP1A2 [2], 43.2 µM. Besides, the “CYP3A4 AC50” value at CYP3A4 is recorded as “Inactive”.

With `O=C(c1ccccc1)c1ccc(O)cc1` [4-Hydroxybenzophenone], the AC50 was found to be 2.7 µM on human CYP2C9 (setting [6]), 31.7 µM at human CYP2C19 [1] (setting [7]), 36.1 µM on human CYP2D6 (setting [8]) and 29 µM on human CYP1A2 [2] (setting [9]). Further, the “CYP3A4 AC50” value at CYP3A4 is listed as “Inactive”.

For the compound `CC(C)(C)c1ccc(O)c(O)c1` [4-tert-Butylcatechol], the concentration at half-maximal activity (AC50) on human CYP2C9 (setting [6]) stood at 73.7 µM; at human CYP2C19 [1] (setting [7]), 13.6 µM; on human CYP2D6 (setting [8]), 9.07 µM; on human CYP1A2 [2] (setting [9]), 60 µM. For the same compound, at CYP3A4, the “CYP3A4 AC50” value is on record as “Inactive”.

With `C=CC[C@]1(O)CC[C@H]2[C@@H]3CCC4=CC(=O)CCC4=C3C=C[C@@]21C` [Altrenogest], the IC50 against human CYP2C9 stood at 14.8 ± 4.35 µM; against human CYP2C19 [1] it was 8.15 ± 2.81 µM; at human CYP2D6, 46.9 ± 11.3 µM. The “CYP1A2 IC50” value on human CYP1A2 [4] is “Inactive”. Besides, in data set [5], the “Luciferase IC50” value was “Inactive”.

For the compound `C[C@@H](O[C@H]1OCCN(Cc2n[nH]c(=O)[nH]2)[C@H]1c1ccc(F)cc1)c1cc(C(F)(F)F)cc(C(F)(F)F)c1` [Aprepitant], the IC50 worked out at 13.8 µM against human CYP2C9 (CYP2C9 IC50), 23.9 µM against human CYP2C19 [1] (CYP2C19 IC50) and 25 µM at human CYP2D6 (CYP2D6 IC50). Besides, the “CYP1A2 IC50” value at human CYP1A2 [4] was “Inactive”. In addition, the “Luciferase IC50” value in data set [5] is recorded as “Inactive”.

A word on the AC50: it is the concentration giving half of the maximal activity seen. Lower therefore signals activity at low concentration. Broadly, the IC50 is the point on the concentration scale where inhibition reaches its midpoint.

The record behind these values is paper PMC12155096 (International Journal of Molecular Sciences, 2025).
